Some test systems named below: ACHN; HCC 2998; HCT-116; HT-29; IGROV-1; OVCAR-8; SK-MEL-28; SN12C; SNB-19; SR; U-251; UACC-62; UO-31; NCI-H23; SK-MEL-2.
What all share (assay): NCI tumour cell line growth inhibition, 48 h

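1) Cells in 96-well plates. 2) Compound, 48 h, 5 concentrations. 3) Linear interpolation between surrounding doses. 4) Unreached endpoint = highest concentration. GI50 = concentration required for 50% inhibition of growth.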 Activity calls are given as the source filed them. No stated cut-off is given here; in the data, active = GI50 up to about 1.1 µM and inactive = higher.

On to `CC1=C2C(O)C(C(C)CO)C(O)CC2(C)C(O)CC1` (configuration not stated), for which the GI50 in the test on ACHN, in the test with HCC 2998, in the test on HCT-116, in the test with HT-29, in the test with IGROV-1 and with OVCAR-8 was > 100 µM (inactive) in each case. Further, the GI50 in the test with SK-MEL-28, in the test on SN12C, in the test with SNB-19, with SR, in the test on U-251 and with UACC-62 was > 100 µM (inactive) each time. Besides, the GI50 in the test with UO-31 is > 100 µM (inactive).

`CCOC(=O)/C(=C/c1ccccn1)C(=O)c1ccccc1`: the GI50 is 20.4 µM (inactive) in the test on ACHN; 17.3 µM (inactive) with HCC 2998; 13.8 µM (inactive) in the test with HCT-116; 13.9 µM (inactive) in the test with HT-29; 16.3 µM (inactive) in the test with IGROV-1; 15.8 µM (inactive) with NCI-H23. The GI50 was 14.5 µM (inactive) in the test with OVCAR-8; 11.8 µM (inactive) in the test with SK-MEL-28; 13.9 µM (inactive) in the test with SK-MEL-2; 13.7 µM (inactive) in the test on SN12C; 17.6 µM (inactive) with SNB-19; 3.32 µM (inactive) in the test on SR. The GI50 with U-251 is 14.3 µM (inactive); with UACC-62 it was 9.59 µM (inactive); in the test with UO-31, 16.3 µM (inactive).

Regarding `O/N=C1/C(=C/c2ccc(F)cc2)CCCC1C(NO)c1ccc(F)cc1` (configuration not stated), the GI50 in the test on ACHN was > 100 µM (inactive); with HCC 2998, 35.6 µM (inactive); in the test with HCT-116 it was 30 µM (inactive); with HT-29, 21.6 µM (inactive); in the test on IGROV-1, 89.1 µM (inactive); in the test with NCI-H23 it was 16.6 µM (inactive). In addition, the GI50 was 35.8 µM (inactive) in the test on OVCAR-8; 25.8 µM (inactive) with SK-MEL-28; 34.6 µM (inactive) with SK-MEL-2; 20.8 µM (inactive) in the test with SN12C; 52.4 µM (inactive) in the test with SNB-19; 46.8 µM (inactive) with U-251. The GI50 in the test on UACC-62 was 34.4 µM (inactive); in the test on UO-31 it was 25.6 µM (inactive).

For `Cc1cc(O)nc(NN2C(Cl)C(=O)C2c2cccc(O)c2)n1` (configuration not stated), the GI50 is 4.61 µM (inactive) in the test with ACHN; 15.1 µM (inactive) in the test on HCC 2998; 2.87 µM (inactive) in the test on HCT-116; 41.7 µM (inactive) with HT-29; 4.8 µM (inactive) in the test with IGROV-1; 5.73 µM (inactive) in the test with NCI-H23. Also, the GI50 is 7.21 µM (inactive) in the test on OVCAR-8; 26.5 µM (inactive) in the test with SK-MEL-28; 4.43 µM (inactive) with SK-MEL-2; 6.31 µM (inactive) with SN12C; 3.48 µM (inactive) in the test on SNB-19; 4.11 µM (inactive) in the test with SR. Further, the results for the GI50 with U-251, with UACC-62 and with UO-31 were 3.05 µM (inactive), 3.37 µM (inactive) and 3.83 µM (inactive), respectively.

In the case of `Cc1cccc(/N=C2\NC(=O)C(CC(=O)Nc3ccc(C)cc3C)S2)c1` (configuration not stated), the GI50 in the test on ACHN is > 100 µM (inactive); with HCC 2998 it was > 100 µM (inactive); in the test with HCT-116, > 100 µM (inactive); in the test on HT-29 it was > 100 µM (inactive); in the test on IGROV-1, > 100 µM (inactive); with NCI-H23, 57 µM (inactive). The GI50 in the test with OVCAR-8 was 70.6 µM (inactive); in the test with SK-MEL-28, > 100 µM (inactive); with SK-MEL-2, > 100 µM (inactive); in the test with SN12C, > 100 µM (inactive); with SNB-19, 74.8 µM (inactive); in the test with SR, 52.6 µM (inactive). Besides, the GI50 in the test on U-251 is > 100 µM (inactive); in the test with UACC-62 it was 68.2 µM (inactive); with UO-31, 66.7 µM (inactive).

On to `CC(=O)OCC1OC(Nc2nc(O)n(C)c(=O)c2-c2csc(N)n2)C(OC(C)=O)C(OC(C)=O)C1OC(C)=O` (configuration not stated), for which the GI50 in the test with ACHN, with HCT-116, in the test on HT-29, in the test with IGROV-1, with NCI-H23 and in the test on OVCAR-8 was > 100 µM (inactive) throughout. Moreover, the GI50 with SK-MEL-28, with SK-MEL-2, in the test on SN12C, with SNB-19, with SR and in the test on U-251 was > 100 µM (inactive) each time. Besides, the GI50 in the test on UACC-62 and with UO-31 was > 100 µM (inactive) each time.

Turning to `NC(CO)c1ccccc1` (configuration not stated), the GI50 in the test on ACHN is > 100 µM (inactive); in the test on HCC 2998, > 100 µM (inactive); with HCT-116 it was > 100 µM (inactive); in the test with HT-29, > 100 µM (inactive); with IGROV-1 it was > 100 µM (inactive); in the test with NCI-H23, > 10 µM (inactive). Also, the GI50 in the test on OVCAR-8, in the test on SK-MEL-28, in the test with SK-MEL-2, in the test with SNB-19, in the test with SR and in the test with U-251 was > 100 µM (inactive) throughout. Besides, the GI50 in the test with UACC-62 and with UO-31 was > 100 µM (inactive) each time.

`COc1cccc2c1C(=O)c1c(O)c3c(c(O)c1C2=O)C[C@@](O)(C(=O)CO)CC3OC1CC(NCCCCC(OC(C)=O)OC(C)=O)C(O)C(C)O1` (some centres not stated): the GI50 is 0.00243 µM (active) in the test with ACHN; 0.00223 µM (active) in the test with HCC 2998; 0.00312 µM (active) in the test on HT-29; 0.0046 µM (active) in the test on IGROV-1; 0.00305 µM (active) with OVCAR-8; 0.00335 µM (active) in the test with SK-MEL-28. The GI50 in the test on SK-MEL-2 was 0.00212 µM (active); in the test on SN12C it was 0.00348 µM (active); in the test with SNB-19 it was 0.00329 µM (active); with SR it was 0.000337 µM (active); in the test with U-251 it was 0.00173 µM (active); in the test with UACC-62 it was 0.00182 µM (active). For the same molecule, the GI50 with UO-31 was 0.00192 µM (active).

As for `O=[N+]([O-])c1cccc(C2=NOC3CCCC23)c1` (configuration not stated), the GI50 in the test with ACHN, in the test with HCC 2998, in the test on HCT-116, in the test on HT-29, with IGROV-1 and in the test with NCI-H23 was > 100 µM (inactive) in each case. The GI50 with OVCAR-8 is > 100 µM (inactive); with SK-MEL-28, > 100 µM (inactive); in the test with SK-MEL-2 it was > 100 µM (inactive); with SN12C it was > 100 µM (inactive); with SNB-19 it was 25.2 µM (inactive); in the test on U-251, > 100 µM (inactive). For the same molecule, the GI50 in the test with UACC-62 and with UO-31 was > 100 µM (inactive) in each case.

In the case of `CCOC(=O)C12CC1(C(=O)OCC)C1CCC2C1` (configuration not stated), the GI50 in the test with ACHN, with HCC 2998, in the test with HCT-116, in the test on HT-29, in the test on IGROV-1 and in the test on NCI-H23 was > 100 µM (inactive) in each case. Moreover, the GI50 was > 100 µM (inactive) in the test with OVCAR-8; > 100 µM (inactive) in the test on SK-MEL-28; > 100 µM (inactive) in the test on SN12C; > 100 µM (inactive) in the test on SNB-19; 49.9 µM (inactive) with SR; > 100 µM (inactive) in the test with U-251. Moreover, the GI50 with UACC-62 and with UO-31 was > 100 µM (inactive) in each case.

With `COc1ccc(/C(=N\NC(=O)NN)C(c2ccc(OC)cc2)C2(O)C(=O)Nc3c(Cl)cc(Cl)cc32)cc1` (configuration not stated), the GI50 in the test with ACHN was > 100 µM (inactive); in the test with HCC 2998, > 100 µM (inactive); in the test on HCT-116, 56.8 µM (inactive); in the test on HT-29 it was > 100 µM (inactive); with IGROV-1 it was > 100 µM (inactive); in the test with NCI-H23, > 100 µM (inactive). The GI50 with OVCAR-8, in the test with SK-MEL-28, in the test on SK-MEL-2, in the test with SN12C, in the test with SNB-19 and in the test with U-251 was > 100 µM (inactive) in each case. Also, the GI50 with UACC-62 and in the test on UO-31 was > 100 µM (inactive) throughout.

For `COC(=O)C1=C(C)N(NC(=O)c2ccccc2)C2(O)CCCC(=O)C12C` (configuration not stated), the GI50 with ACHN, with HCT-116, in the test on HT-29, with IGROV-1, in the test with NCI-H23 and in the test with OVCAR-8 was > 100 µM (inactive) throughout. Further, the GI50 with SK-MEL-28, with SK-MEL-2, in the test with SN12C, in the test on SNB-19, with U-251 and in the test on UACC-62 was > 100 µM (inactive) throughout. Also, in the test on UO-31, the GI50 was > 100 µM (inactive).

As to `CC(C)c1ccc(O)c(=O)cc1` [GAMMA-THUJAPLICIN], the GI50 in the test with ACHN is 6.05 µM (inactive); in the test with HCC 2998 it was 7.08 µM (inactive); with HCT-116, 2.8 µM (inactive); in the test with HT-29 it was 4.73 µM (inactive); in the test with IGROV-1, 10.4 µM (inactive); in the test with NCI-H23, 7.38 µM (inactive). The GI50 was 3.46 µM (inactive) in the test on OVCAR-8; 12.6 µM (inactive) in the test with SK-MEL-28; 5 µM (inactive) in the test with SK-MEL-2; 8.38 µM (inactive) in the test with SN12C; 7.74 µM (inactive) in the test with SNB-19; 1.66 µM (inactive) in the test on SR. Further, the GI50 in the test with U-251 is 7.29 µM (inactive); in the test on UACC-62 it was 3.53 µM (inactive); in the test on UO-31, 3.42 µM (inactive).

Consider `C/C(=C1/N=C(c2cc([N+](=O)[O-])ccc2Cl)N(C2=CC=C(Cl)CC2)C1=O)c1cc2ccccc2oc1=O`, for which the GI50 was 3.93 µM (inactive) in the test on ACHN; 24.7 µM (inactive) with HCC 2998; 37.4 µM (inactive) in the test with HCT-116; 63.4 µM (inactive) in the test with HT-29; 27.6 µM (inactive) with IGROV-1; 14.4 µM (inactive) in the test on NCI-H23. In addition, the GI50 was 51.5 µM (inactive) with OVCAR-8; 26.3 µM (inactive) with SK-MEL-28; 23.4 µM (inactive) with SN12C; 44.1 µM (inactive) in the test with SNB-19; 28.6 µM (inactive) with SR; 49.2 µM (inactive) with U-251. Moreover, the values for the GI50 in the test on UACC-62 and in the test on UO-31 were 29.2 µM (inactive) and 21.8 µM (inactive), respectively.

These data come from ChEMBL document CHEMBL1201862, “PubChem BioAssay data set” (2004).
